Among the data in US20210395313A1, “PEPTIDE PAC1 ANTAGONISTS” (AMGEN INC., priority 2017, published 2021) are IC50 values, retold here.

Where a SMILES comes first, the peptide text is derived from it. Bridges are numbered along the chain shown (N, C = ends). Where no end group is shown, it is not given here.

In assay [1] the target is T1, human PAC1 receptor (Homo sapiens, UniProt P41586).
T1 construct: SHSY-5Y (human neuroblastoma cell line) and RG-2 (rat glioma cell line) cells endogenously express human and rat PAC1 receptors, respectively; endogenous in cells; host or cells: SHSY-5Y human neuroblastoma cells
T1 sequence (P41586 21-468): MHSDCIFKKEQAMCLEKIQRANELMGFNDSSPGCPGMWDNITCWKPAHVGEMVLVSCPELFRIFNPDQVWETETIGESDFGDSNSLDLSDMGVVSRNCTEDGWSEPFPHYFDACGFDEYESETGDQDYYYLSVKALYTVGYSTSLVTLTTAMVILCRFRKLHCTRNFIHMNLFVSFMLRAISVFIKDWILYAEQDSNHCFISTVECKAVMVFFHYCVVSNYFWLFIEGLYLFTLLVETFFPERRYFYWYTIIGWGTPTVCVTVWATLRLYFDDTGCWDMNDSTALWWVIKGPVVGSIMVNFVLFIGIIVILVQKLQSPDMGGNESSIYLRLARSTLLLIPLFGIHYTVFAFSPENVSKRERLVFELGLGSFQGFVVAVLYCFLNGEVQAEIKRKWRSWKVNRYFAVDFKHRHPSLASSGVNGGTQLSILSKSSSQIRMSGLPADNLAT
In words: LANCE Ultra cAMP accumulation antagonist assay in SHSY-5Y cells.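 Also: inhibition of cAMP accumulation evoked by PAC1 agonist at its EC80 in SHSY-5Y cells endogenously expressing receptor, 30 min preincubation then 15 min agonist, TR-FRET readout.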 The format is cell-based.
Procedure: In order to determine the potency of peptide antagonists at the PAC1 receptor, functional cAMP accumulation assays using LANCE Ultra cAMP assay kit to measure the agonist and antagonist activity of PAC1 peptides were used. SHSY-5Y (human neuroblastoma cell line) and RG-2 (rat glioma cell line) cells endogenously express human and rat PAC1 receptors, respectively. Agonist activity of PAC1 peptides was tested by incubating with SHSY-5Y at 2,000 cells per well or RG-2 at 5,000 cells per well for 15 minutes at room temperature. PAC1 receptor agonist PACAP38 or maxadilan was included as a positive control. The reaction was stopped by adding detection mixture, europium (Eu) chelate-labeled cAMP tracer and cAMP-specific monoclonal antibodies labeled with the ULight™ dye, to all wells followed by a 60-minute incubation at room temperature. The assay plates were then read on an EnVision instrument at an emission wavelength of 665 and 615 nm and data were analyzed using Genedata Screener or GraphPad Prism software. A similar procedure was used in the antagonist assays by using a fixed concentration of PAC1 agonist. The concentrations of agonists were chosen based on their ECK) values at PAC1 receptors in SHSY-5Y or RG-2 cells. SHSY-5Y or RG-2 cells were added into 96-well half-area white plates. Serially diluted PAC1 peptides at ten concentrations were added and incubated for 30 minutes at room temperature. PAC1 agonist at EC80 concentration was then added and further incubated for 15 minutes at room temperature. The reaction was stopped by adding detection mixture to all wells followed by a 60-minute incubation at room temperature. The assay plates were read and analyzed the same way as that of agonist assay. Cells, agonists, and PAC1 peptides were prepared in freshly made assay buffer (F-12, 0.5 mM IBMX, 0.1 or 0.4% BSA (pH 7.4)). Detection mixture was made by mixing a 1/50 dilution of the Eu-cAMP tracer stock solution in cAMP Detection Buffer and a 1/150 dilution of the ULight-anti-cAMP stock solution in cAMP Detection Buffer. Europium (Eu) chelate-labeled cAMP tracer, cAMP-specific monoclonal antibodies labeled with the ULight™ dye, BSA, and detection buffer were provided in LANCE Ultra cAMP Kit from PerkinElmer

Assay [2] deals with T2, rat PAC1 receptor (Rattus norvegicus, UniProt P32215).
T2 construct: SHSY-5Y (human neuroblastoma cell line) and RG-2 (rat glioma cell line) cells endogenously express human and rat PAC1 receptors, respectively; endogenous in cells; host or cells: RG-2 rat glioma cells
T2 sequence (P32215 20-523): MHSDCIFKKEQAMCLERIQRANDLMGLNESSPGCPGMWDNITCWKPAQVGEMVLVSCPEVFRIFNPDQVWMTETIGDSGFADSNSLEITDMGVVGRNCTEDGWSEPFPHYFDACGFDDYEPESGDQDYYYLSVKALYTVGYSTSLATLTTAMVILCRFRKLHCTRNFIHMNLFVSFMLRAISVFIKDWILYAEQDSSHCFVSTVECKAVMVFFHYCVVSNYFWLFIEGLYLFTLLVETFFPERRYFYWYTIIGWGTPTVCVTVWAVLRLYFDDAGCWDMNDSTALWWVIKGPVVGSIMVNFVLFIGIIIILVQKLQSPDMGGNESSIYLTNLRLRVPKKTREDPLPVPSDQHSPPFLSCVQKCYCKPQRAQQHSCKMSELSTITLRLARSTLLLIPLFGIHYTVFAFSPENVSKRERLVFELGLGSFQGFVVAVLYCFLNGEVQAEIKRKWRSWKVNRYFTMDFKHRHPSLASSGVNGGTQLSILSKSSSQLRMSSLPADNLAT
In words: LANCE Ultra cAMP accumulation antagonist assay in RG-2 cells.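 Also: RG-2 rat glioma cells endogenously expressing PAC1, test peptide preincubated 30 min, then PAC1 agonist added at its EC80 for 15 min, cAMP accumulation read by LANCE Ultra.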 The format is cell-based. In general terms: In TR-FRET formats the signal depends on donor and acceptor labels being close together.

Take “CDATCQFRKAIDDCDRQAHHSNVPGSVFKACMKQKKKEWKAN-NH2 (disulfide 1-5, 14-31) [compound 158]”: the concentration for half-maximal inhibition (IC50) in assay [1] and in assay [2] was 0.01 to 1 nM in each case.
For the compound “CDATCQFRKAIDDCIFWAAHSNVPGSVFKACMKQKKKEFKAG-NH2 (disulfide 1-5, 14-31) [compound 123]”, the concentration for half-maximal inhibition (IC50) in assay [1] and in assay [2] was 0.01 to 1 nM each time.
As for “CDATCQFRKAIDDCYKQAHHSNVPGSVFKACMKQKKKEFKAGH (disulfide 1-5, 14-31) [compound 47]”, the IC50 in assay [1] and in assay [2] was 0.01 to 1 nM in each case.
On to “CDATCQFRKAIDDCVRQAHHSNVPGSVWKACMKQKKKEWKAGH (disulfide 1-5, 14-31) [compound 106]”, for which the half-maximal inhibitory concentration (IC50) in assay [1] and in assay [2] was 0.01 to 1 nM each time.
With “CDATCQFRKAIDDCQKQAHHSNVPGSVFKTCMKQKKKEFKAG-NH2 (disulfide 1-5, 14-31) [compound 146]”, the IC50 in assay [1] and in assay [2] was 0.01 to 1 nM in each case.
Turning to “CDATCQFRKAIDDCYYRSWHANVPGSVFKACMKQKKKEWKAGY (disulfide 1-5, 14-31) [compound 66]”, the IC50 in assay [1] and in assay [2] was 0.01 to 1 nM in each case.
With `CC[C@H](C)[C@H](NC(=O)[C@H](C)NC(=O)[C@H](CCCCN)NC(=O)[C@H](CCCNC(=N)N)NC(=O)[C@H](Cc1ccccc1)NC(=O)[C@H](CCC(N)=O)NC(=O)[C@@H]1CSSC[C@H](N)C(=O)N[C@@H](CC(=O)O)C(=O)N[C@@H](C)C(=O)N[C@@H]([C@@H](C)O)C(=O)N1)C(=O)N[C@@H](CC(=O)O)C(=O)N[C@@H](CC(=O)O)C(=O)N[C@H]1CSSC[C@@H](C(=O)N[C@@H](CCSC)C(=O)N[C@@H](CCCCN)C(=O)N[C@@H](CCC(N)=O)C(=O)N[C@@H](CCCCN)C(=O)N[C@@H](CCCCN)C(=O)N[C@@H](CCCCN)C(=O)N[C@@H](CCC(=O)O)C(=O)N[C@@H](Cc2ccccc2)C(=O)N[C@@H](CCCCN)C(N)=O)NC(=O)[C@H](CCC(=O)O)NC(=O)[C@H](CCCCN)NC(=O)[C@H](Cc2ccccc2)NC(=O)[C@H](C(C)C)NC(=O)[C@H](CO)NC(=O)CNC(=O)[C@@H]2CCCN2C(=O)[C@H](C(C)C)NC(=O)[C@H](CC(N)=O)NC(=O)[C@H](CO)NC(=O)[C@H](Cc2c[nH]cn2)NC(=O)[C@H](Cc2c[nH]cn2)NC(=O)[C@H](C)NC(=O)[C@H](CCC(N)=O)NC(=O)[C@H](CCCCN)NC(=O)[C@H](CCC(N)=O)NC1=O` [compound 293], the results for the 50% inhibitory concentration (IC50) in assay [1] and in assay [2] were 1 to 100 nM and 0.01 to 1 nM, respectively.
On the same counts, the results for “CDATCQFRKAIDDCYWIAMHSNVPGSVWKACMKQKKKEFKAG-NH2 (disulfide 1-5, 14-31) [compound 147]” are 0.01 to 1 nM and 0.01 to 1 nM.
Taken in the same sequence, the figures for “CDATCQFRKAIDDCVWFAWHSNVPGSVFKACMKQKKKEFKAG-NH2 (disulfide 1-5, 14-31) [compound 148]” were 0.01 to 1 nM and 0.01 to 1 nM.
Consider “CDATCQFRKAIDDCARQAHHSNVPGSVFKLCMKQKKKEWKAGH (disulfide 1-5, 14-31) [compound 23]”, for which the IC50 in assay [1] is 0.01 to 1 nM; in assay [2] it was below 0.01 nM.
For “CDATCQFRKAIDDCVRQAHHSNVPGSVFKACMKQKKKEWKAGY (disulfide 1-5, 14-31) [SEQ ID NO 86]”, the IC50 in assay [1] and in assay [2] was 0.01 to 1 nM each time.
On to “CDATCQFRKAIDECAKQAHHSNVPGSVFKACMKQKKKEFKAG-NH2 (disulfide 1-5, 14-31) [compound 12]”, for which the results for the half-inhibitory concentration (IC50) in assay [1] and in assay [2] were 0.01 to 1 nM and below 0.01 nM, respectively.
For the compound “CDATCQFRKAIDDCMWYSRHSNVPGSVFKACMKQKKKEFKAG-NH2 (disulfide 1-5, 14-31) [compound 121]”, the IC50 in assay [1] and in assay [2] was 0.01 to 1 nM in each case.
As for “CDATCQFRKAIDDCFTWSWHSNVPGSVFKACMKQKKKEFKAG-NH2 (disulfide 1-5, 14-31) [compound 135]”, the half-inhibitory concentration (IC50) in assay [1] and in assay [2] was 0.01 to 1 nM throughout.
As for “CDATCQFRKAIDDCQRQAHHSNVPGNSVFKECMKQKKKEFK-NH2 (disulfide 1-5, 14-32) [compound 288]”, the IC50 in assay [1] and in assay [2] was 1 to 100 nM in each case.
On to “CDATCQFRKAIDDCARQAHHSNVPGSVFKACFKQKKKEWKAGH (disulfide 1-5, 14-31) [compound 39]”, for which the IC50 in assay [1] and in assay [2] was 0.01 to 1 nM each time.
With “CDATCQFRKAIDDCWMLSWHANVPGSVFKACMKQKKKEFKAG-NH2 (disulfide 1-5, 14-31) [compound 92]”, the half-maximal inhibitory concentration (IC50) in assay [1] and in assay [2] was 0.01 to 1 nM throughout.
As for “CDATCQFRKAIDDCQKQAHHSNVPGSVFKACLVQKKKEFKAG-NH2 (disulfide 1-5, 14-31) [compound 101]”, the IC50 in assay [1] and in assay [2] was 1 to 100 nM throughout.
Take “CDATCQFRKAIDDCMLLSWHSNVPGSVFKACMKQKKKEFKAG-NH2 (disulfide 1-5, 14-31) [compound 132]”: the values for the IC50 in assay [1] and in assay [2] were 0.01 to 1 nM and below 0.01 nM, respectively.
Consider “CDATCQFRKAIDDCARQAHHSNVPGSVFKACIKQKKKEWKAGH (disulfide 1-5, 14-31) [compound 9]”, for which the IC50 in assay [1] and in assay [2] was 0.01 to 1 nM throughout.
Turning to `CC[C@H](C)[C@H](NC(=O)[C@H](C)NC(=O)[C@H](CCCCN)NC(=O)[C@H](CCCNC(=N)N)NC(=O)[C@H](Cc1ccccc1)NC(=O)[C@H](CCC(N)=O)NC(=O)[C@@H]1CSSC[C@H](N)C(=O)N[C@@H](CC(=O)O)C(=O)N[C@@H](C)C(=O)N[C@@H]([C@@H](C)O)C(=O)N1)C(=O)N[C@@H](CC(=O)O)C(=O)N[C@@H](CC(=O)O)C(=O)N[C@H]1CSSC[C@@H](C(=O)N[C@@H](CCSC)C(=O)N[C@@H](CCCCN)C(=O)N[C@@H](CCC(N)=O)C(=O)N[C@@H](CCCCN)C(=O)N[C@@H](CCCCN)C(=O)N[C@@H](CCCCN)C(=O)N[C@@H](CCC(=O)O)C(=O)N[C@@H](Cc2ccccc2)C(=O)N[C@@H](CCCCN)C(N)=O)NC(=O)[C@H](CCC(=O)O)NC(=O)[C@H](CCCCN)NC(=O)[C@H](Cc2ccccc2)NC(=O)[C@H](CO)NC(=O)[C@H](CC(N)=O)NC(=O)[C@H](CO)NC(=O)[C@H](Cc2c[nH]cn2)NC(=O)[C@H](Cc2c[nH]cn2)NC(=O)[C@H](C)NC(=O)[C@H](CCC(N)=O)NC(=O)[C@H](CCCCN)NC(=O)[C@H](CC(=O)O)NC1=O` [compound 222], the half-inhibitory concentration (IC50) is below 0.01 nM in assay [1] and 1 to 100 nM in assay [2].
For `CC[C@H](C)[C@H](NC(=O)[C@H](C)NC(=O)[C@H](CCCCN)NC(=O)[C@H](CCCNC(=N)N)NC(=O)[C@H](Cc1ccccc1)NC(=O)[C@H](CCC(N)=O)NC(=O)[C@@H]1CSSC[C@H](N)C(=O)N[C@@H](CC(=O)O)C(=O)N[C@@H](C)C(=O)N[C@@H]([C@@H](C)O)C(=O)N1)C(=O)N[C@@H](CC(=O)O)C(=O)N[C@@H](CC(=O)O)C(=O)N[C@H]1CSSC[C@@H](C(=O)N[C@@H](CCSC)C(=O)N[C@@H](CCCCN)C(=O)N[C@@H](CCC(N)=O)C(=O)N[C@@H](CCCCN)C(=O)N[C@@H](CCCCN)C(=O)N[C@@H](CCCCN)C(=O)N[C@@H](CCC(=O)O)C(=O)N[C@@H](Cc2ccccc2)C(=O)N[C@@H](CCCCN)C(=O)N[C@@H](C)C(=O)NCC(=O)N[C@@H](Cc2c[nH]cn2)C(=O)O)NC(=O)[C@H](C)NC(=O)[C@H](CCCCN)NC(=O)[C@H](Cc2ccccc2)NC(=O)[C@H](C(C)C)NC(=O)[C@H](CO)NC(=O)[C@H](CO)NC(=O)[C@H](Cc2c[nH]cn2)NC(=O)[C@H](Cc2ccc(O)cc2)NC(=O)[C@H](C)NC(=O)[C@H](CCC(N)=O)NC(=O)[C@H](CCCNC(=N)N)NC(=O)[C@H](C)NC1=O` [compound 35] (H-CDATCQFRKAIDDCARQAYHSSVFKACMKQKKKEFKAGH-OH; disulfide 1-5, 14-27), the half-inhibitory concentration (IC50) in assay [1] and in assay [2] was 0.01 to 1 nM each time.
As for “CDATCQFRKAIDDCYWQAIHANVPGSVWKACMKQKKKEFKAG-NH2 (disulfide 1-5, 14-31) [compound 138]”, the IC50 in assay [1] and in assay [2] was 0.01 to 1 nM in each case.

One may read the IC50 as the concentration that gives 50% inhibition.
